From patent US20210292330A1, “PYRROLIDINE-FUSED HETEROCYCLES” (Erasca, Inc., priority 2020, published 2021)

Biological target: T1, KRAS 4B G12C protein (Homo sapiens, UniProt P01116, G12C)
T1 construct: This protein contained 188 amino acids in total, including an N-terminal 6-Histidine tag; made in house; host or cells: E. coli BL21
Assay: In vitro covalent adduct formation (CAF) assay by LC-MS
Type: binding
Settings: compound 10 μM, protein 5 μM, 22° C., percentage of protein bound by the compound
Method: In vitro covalent adduct formation assay: Covalent adduct formation (CAF) reactions between Cys12 of the KRAS 4B G12C protein and some of the compounds of Table 1 were measured in vitro using liquid chromatography-mass spectrometry (LC-MS).
Recombinant Human KRAS 4B protein containing the G12C mutation was used in compound screening experiments. This protein contained 188 amino acids in total, including an N-terminal 6-Histidine tag, followed by a Tobacco Etch Virus (TEV) tag, followed by residues 1-169 of the native KRAS 4B sequence. The exact mass of the protein was 21,310 Da as determined by mass spectrometry. The full amino acid sequence is shown below:
The recombinant protein was expressed in E. coli BL21 cells and purified using affinity chromatography via a Ni-NTA column. […] Pure KRAS 4B G12C protein was diluted to a concentration of 5 μM in Tris Buffered Saline, pH 7.4. The compounds were dissolved in DMSO and added to the diluted protein to make a 10 μM concentration. The total DMSO concentration in the reaction was 4%. The reaction was mixed by pipetting and incubated at 22° C. for one hour. Aliquots of the reaction were taken over time and diluted 2:1 in 0.1% formic acid. The intact mass of the protein samples was measured by LC-MS using a QExactive+ mass spectrometer (Thermo Scientific). An amount of 500 ng total protein was injected onto a C8 reverse phase column, eluted with a seven-minute gradient of 30%-90% acetonitrile/0.1% formic acid, and analyzed for intact mass by the mass spectrometer. Adducts identified were confirmed to be within 1 Dalton of the expected mass, and the relative ratios of free:adduct protein were used to quantify the percentage of protein bound by the compound. CAF reactions were run in duplicate, with a typical variability of ±5%.

SMILES	CAF (10 minutes/60 minutes) at 10 micromolar: 10 minutes	CAF (10 minutes/60 minutes) at 10 micromolar: 60 minutes
C=CC(=O)N1CCN(c2nc(OC[C@@H]3CCCN3C)nc3c2CN(Cc2cc(Cl)ccc2Cl)C3)[C@@H](C)C1 [1-41]	3%	22%
C=CC(=O)N1CCN(c2nc(OC[C@@H]3CCCN3C)nc3c2CN(C2CCc4ccccc42)C3)C[C@@H]1CC#N (stereo partly shown) [1-42]	84%	95%
C=CC(=O)N1CCN(c2nc(OC[C@@H]3CCCN3C)nc3c2CN(Cc2cc(O)ccc2Cl)C3)[C@@H](C)C1 [1-43]	97%	98%
C=CC(=O)N1CCN(c2nc(OC[C@@H]3CCCN3C)nc3c2CN(Cc2c(O)cccc2F)C3)[C@@H](C)C1 [1-47]	11%	43%
C=CC(=O)N1CCN(c2nc(OC[C@@H]3CCCN3C)nc3c2CN(c2cccc4cccc(C)c24)C3)C[C@@H]1CC(F)(F)F [1-48]	0%	1%
C=CC(=O)N1CCN(c2nc(OC[C@@H]3CCCN3C)nc3c2CN(Cc2cc(O)ccc2F)C3)[C@@H](C)C1 [1-50]	53%	92%
C=CC(=O)N1CCN(c2nc(OC[C@@H]3CCCN3C)nc3c2CN(C2CCCc4ccccc42)C3)C[C@@H]1CC#N (stereo partly drawn) [1-52 (2nd isomer)]	76%	91%
C=CC(=O)N1CCN(c2nc(OC[C@@H]3CCCN3C)nc3c2CN(C2CCCc4ccccc42)C3)C[C@@H]1CC#N (stereo partly shown) [1-52]	6%	91%
C=CC(=O)N1CCN(c2nc(OC[C@@H]3CCCN3C)nc3c2CN(Cc2cc(OC(F)F)ccc2Cl)C3)C[C@@H]1CC#N [1-53]	40%	86%
C=CC(=O)N1CCN(c2nc(OC[C@@H]3CCCN3C)nc3c2CN(C(C)c2cc(O)ccc2C)C3)[C@@H](C)C1 (stereo partly shown) [1-54]	70%	77%
C=CC(=O)N1CCN(c2nc(OC[C@@H]3CCCN3C)nc3c2CN(Cc2c(F)cccc2OC(F)F)C3)C[C@@H]1CC#N [1-58]	96%	98%
C=CC(=O)N1CCN(c2nc(OC[C@@H]3CCCN3C)nc3c2CN(Cc2cc(C(F)F)ccc2C)C3)[C@@H](C)C1 [1-64]	0%/ 0%	0%/ 0%
C=CC(=O)N1CCN(c2nc(OC[C@@H]3CCCN3C)nc3c2CN(Cc2nc(OC)ccc2Cl)C3)[C@@H](C)C1 [1-65]	0%	2%
C=CC(=O)N1CCN(c2nc(OCC3CCCC3)nc3c2CN(Cc2c(F)cccc2OC)C3)C[C@@H]1CC#N [1-66]	1%	14%
C=CC(=O)N1CCN(c2nc(OC[C@@H]3CCCN3C)nc3c2CN(Cc2[nH]c(=O)ccc2Cl)C3)[C@@H](C)C1 [1-69, 6-((4-((S)-4-acryloyl-2-methylpiperazin-1-yl)-2-(((S)-1-methylpyrrolidin-2-yl)methoxy)-5,7-dihydro-6H-pyrrolo[3,4-d]pyrimidin-6-yl)methyl)-5-chloropyridin-2(1H)-one]	0%/ 0%	0%/ 0%
C=CC(=O)N1CCN(c2nc(OCC3CCCC3)nc3c2CN(Cc2c(O)cccc2F)C3)C[C@@H]1CC#N [1-71]	9%	45%
C=CC(=O)N1CCN(c2nc(OC[C@@H]3CCCN3C)nc3c2CN(C2CCCc4cccc(Cl)c42)C3)C[C@@H]1CC#N (stereo partly shown) [1-72]	95%	98%
C=CC(=O)N1CCN(c2nc(OC[C@@H]3CCCN3C)nc3c2CN(C(C)c2cc(F)ccc2C)C3)C[C@@H]1CC#N (stereo partly shown) [1-73]	61%	86%
C=CC(=O)N1CCN(c2nc(OC)nc3c2CN(Cc2cc(OC)ccc2Cl)C3)C[C@@H]1CC#N [1-74]	2%	21%
C=CC(=O)N1CCN(c2nc(OC)nc3c2CN(Cc2cc(F)ccc2Cl)C3)C[C@@H]1CC#N [1-76]	0%	7%
C=CC(=O)N1CCN(c2nc(OC[C@@H]3CCCN3C)nc3c2CN(Cc2ccccc2)C3)C[C@@H]1CC#N [1-77]	27%	43%
C=CC(=O)N1CCN(c2nc(OC)nc3c2CN(Cc2cc(O)ccc2Cl)C3)C[C@@H]1CC#N [1-78]	89%	97%
C=CC(=O)N1CCN(c2nc(OC[C@@H]3CCCO3)nc3c2CN(Cc2c(F)cccc2OC)C3)C[C@@H]1CC#N [1-79]	3%	23%
C=CC(=O)N1CCN(c2nc(OC[C@@H]3CCCN3C)nc3c2CN(Cc2c(Cl)cccc2OC(F)F)C3)C[C@@H]1CC#N [1-82]	94%	98%

The next lines start with the values.

CAF (10 minutes/60 minutes) at 10 micromolar: 10 minutes	CAF (10 minutes/60 minutes) at 10 micromolar: 60 minutes	SMILES
51%	72%	C=CC(=O)N1CCN(c2nc(OC[C@@H]3CCCN3C)nc3c2CN(Cc2cc(OC)ccc2F)C3)C[C@@H]1CC#N [1-39]
98%/ 98%	98%/ 98%	C=CC(=O)N1CCN(c2nc(OC[C@@H]3CCCN3C)nc3c2CN(Cc2cc(O)ccc2C)C3)C[C@@H]1CC#N [1-40]
98%	100%	C=CC(=O)N1CCN(c2nc(OC[C@@H]3CCCN3C)nc3c2CN(Cc2c(Cl)cccc2Cl)C3)C[C@@H]1CC#N [1-44]
94%	98%	C=CC(=O)N1CCN(c2nc(OC[C@@H]3CCCN3C)nc3c2CN(Cc2ccccc2C)C3)C[C@@H]1CC#N [1-45]
98%	99%	C=CC(=O)N1CCN(c2nc(OC[C@@H]3CCCN3C)nc3c2CN(Cc2cc(O)ccc2F)C3)C[C@@H]1CC#N [1-46]
81%	97%	C=CC(=O)N1CCN(c2nc(OC[C@@H]3CCCN3C)nc3c2CN(Cc2cc(Cl)ccc2F)C3)C[C@@H]1CC#N [1-49]
98%/ 98%	98%/ 98%	C=CC(=O)N1CCN(c2nc(OC[C@@H]3CCCN3C)nc3c2CN(Cc2c(O)cccc2Cl)C3)C[C@@H]1CC#N [1-51]
78%	91%	C=CC(=O)N1CCN(c2nc(OC[C@@H]3CCCN3C)nc3c2CN(Cc2c(C)cccc2O)C3)C[C@@H]1CC#N [1-55]
46%	98%	C=CC(=O)N1CCN(c2nc(OC[C@@H]3CCCN3C)nc3c2CN(Cc2c(C)cccc2OC)C3)C[C@@H]1CC#N [1-59]
–	NA/ 80%	C=CC(=O)N1CCN(c2nc(OC[C@@H]3CCCN3C)nc3c2CN(Cc2c(F)cccc2F)C3)C[C@@H]1CC#N [1-61]
70%	92%	C=CC(=O)N1CCN(c2nc(OC[C@@H]3CCCN3C)nc3c2CN(Cc2cc(Cl)ccc2C)C3)C[C@@H]1CC#N [1-67]
90%	97%	C=CC(=O)N1CCN(c2nc(OC[C@@H]3CCCN3C)nc3c2CN(Cc2cc(OC)ccc2Cl)C3)C[C@@H]1CC#N [1-68]
77%	94%	C=CC(=O)N1CCN(c2nc(OC[C@@H]3CCCN3C)nc3c2CN(Cc2cc(C)ccc2C)C3)C[C@@H]1CC#N [1-70]
96%	97%	C=CC(=O)N1CCN(c2nc(OC[C@@H]3CCCN3C)nc3c2CN(Cc2ccccc2Cl)C3)C[C@@H]1CC#N [1-75]
94%	96%	C=CC(=O)N1CCN(c2nc(OC[C@@H]3CCCN3C)nc3c2CN(Cc2cc(C)ccc2Cl)C3)C[C@@H]1CC#N [1-80]
96%	98%	C=CC(=O)N1CCN(c2nc(OC[C@@H]3CCCN3C)nc3c2CN(Cc2cccc(Cl)c2Cl)C3)C[C@@H]1CC#N [1-81]
